From the supplement of paper PMC10307832

Columns and labels:
Experiment in all cases: relative viability (nuclei count vs DMSO), 5 days (fraction); higher = more cells survive
Adavosertib + OSI-027 = compound: C=CCn1c(=O)c2cnc(Nc3ccc(N4CCN(C)CC4)cc3)nc2n1-c1cccc(C(C)(C)O)n1 [Adavosertib] + COc1cccc2cc(-c3nc([C@H]4CC[C@H](C(=O)O)CC4)n4ncnc(N)c34)[nH]c12 [OSI-027] (partner 0.5 µM)
Outline: (§1)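 Lung cancer cell lines were seeded in 1536-well plates and dosed by pin tool the next day, with either a single drug or a fixed anchor-drug dose combined with five library-drug doses (not always all listed) spaced in √10 steps. Five days later, one step fixed the cells and stained their nuclei (final 0.05% Triton X-100, 1% formaldehyde, 1 ug/ml Hoechst), and nuclei were counted on 4× images. Relative viability is the nuclei count in treated wells divided by the count in vehicle wells, and each value is the median of duplicate plates.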

Adavosertib + Tozasertib = compound: C=CCn1c(=O)c2cnc(Nc3ccc(N4CCN(C)CC4)cc3)nc2n1-c1cccc(C(C)(C)O)n1 [Adavosertib] + Cc1cc(Nc2cc(N3CCN(C)CC3)nc(Sc3ccc(NC(=O)C4CC4)cc3)n2)n[nH]1 [Tozasertib] (partner 0.1 µM)
Outline: as §1

Adavosertib + Pictilisib = compound: C=CCn1c(=O)c2cnc(Nc3ccc(N4CCN(C)CC4)cc3)nc2n1-c1cccc(C(C)(C)O)n1 [Adavosertib] + CS(=O)(=O)N1CCN(Cc2cc3nc(-c4cccc5[nH]ncc45)nc(N4CCOCC4)c3s2)CC1 [Pictilisib] (partner 1 µM)
Outline: as §1

Adavosertib + Crizotinib = compound: C=CCn1c(=O)c2cnc(Nc3ccc(N4CCN(C)CC4)cc3)nc2n1-c1cccc(C(C)(C)O)n1 [Adavosertib] + C[C@@H](Oc1cc(-c2cnn(C3CCNCC3)c2)cnc1N)c1c(Cl)ccc(F)c1Cl [Crizotinib] (partner 1 µM)
Outline: as §1

Adavosertib + Linsitinib = compound: C=CCn1c(=O)c2cnc(Nc3ccc(N4CCN(C)CC4)cc3)nc2n1-c1cccc(C(C)(C)O)n1 [Adavosertib] + C[C@]1(O)C[C@@H](c2nc(-c3ccc4ccc(-c5ccccc5)nc4c3)c3c(N)nccn32)C1 [Linsitinib] (partner 1 µM)
Outline: as §1

| Cell Line | relative viability (Adavosertib + OSI-027; first compound 0.01 µM) | relative viability (Adavosertib + OSI-027; first compound 0.03162 µM) | relative viability (Adavosertib + OSI-027; first compound 0.1 µM) | relative viability (Adavosertib + OSI-027; first compound 0.3162 µM) | relative viability (Adavosertib + Tozasertib; first compound 0.01 µM) | relative viability (Adavosertib + Tozasertib; first compound 0.03162 µM) | relative viability (Adavosertib + Tozasertib; first compound 0.1 µM) | relative viability (Adavosertib + Tozasertib; first compound 0.3162 µM) | relative viability (Adavosertib + Pictilisib; first compound 0.01 µM) | relative viability (Adavosertib + Pictilisib; first compound 0.03162 µM) | relative viability (Adavosertib + Pictilisib; first compound 0.1 µM) | relative viability (Adavosertib + Pictilisib; first compound 0.3162 µM) | relative viability (Adavosertib + Crizotinib; first compound 0.01 µM) | relative viability (Adavosertib + Crizotinib; first compound 0.03162 µM) | relative viability (Adavosertib + Crizotinib; first compound 0.1 µM) | relative viability (Adavosertib + Crizotinib; first compound 0.3162 µM) | relative viability (Adavosertib + Linsitinib; first compound 0.01 µM) | relative viability (Adavosertib + Linsitinib; first compound 0.03162 µM) | relative viability (Adavosertib + Linsitinib; first compound 0.1 µM) | relative viability (Adavosertib + Linsitinib; first compound 0.3162 µM) |
| --- | --- | --- | --- | --- | --- | --- | --- | --- | --- | --- | --- | --- | --- | --- | --- | --- | --- | --- | --- | --- |
| NCI-H1648 | 0.273 | 0.293 | 0.248 | 0.251 | 0.545 | 0.613 | 0.386 | 0.545 |  |  |  |  |  |  |  |  |  |  |  |  |
| NCI-H522 | 0.809 | 0.784 | 0.718 | 0.659 | 0.522 | 0.58 | 0.508 | 0.581 |  |  |  |  |  |  |  |  |  |  |  |  |
| NCI-H1299 |  |  |  |  |  |  |  |  | 0.982 | 0.66 | 0.541 | 0.123 | 0.929 | 0.936 | 0.96 | 0.49 | 0.963 | 0.985 | 0.996 | 0.95 |
| NCI-H2170 | 0.703 | 0.786 | 0.632 | 0.597 | 0.675 | 0.683 | 0.688 | 0.735 | 0.345 | 0.308 | 0.264 | 0.31 | 1.23 | 1.17 | 1.19 | 1.35 |  |  |  |  |
| SW 900 |  | 0.554 | 0.494 | 0.436 |  | 0.533 | 0.62 | 0.538 |  |  |  |  |  |  |  |  |  |  |  |  |
| NCI-H1563 | 0.737 | 0.812 | 0.766 | 0.757 |  |  |  |  | 0.631 | 0.62 | 0.609 | 0.625 | 0.837 | 0.942 | 0.936 | 0.924 | 1.17 | 1.24 | 1.18 | 1.2 |
| NCI-H2342 | 0.575 | 0.566 | 0.676 | 0.616 | 0.548 | 0.507 | 0.55 | 0.525 |  |  |  |  |  |  |  |  |  |  |  |  |
| IA-LM |  |  |  |  |  |  |  |  | 0.363 | 0.404 | 0.418 | 0.365 | 0.868 |  | 1.02 | 0.784 | 0.687 | 0.749 | 0.692 | 0.807 |
| NCI-H1793 | 0.282 | 0.289 | 0.26 | 0.277 | 0.352 | 0.386 | 0.4 | 0.253 | 0.385 | 0.295 | 0.318 | 0.248 |  |  |  |  | 0.822 | 0.765 | 0.915 | 0.869 |
| NCI-H1623 | 0.427 | 0.446 | 0.389 | 0.431 | 0.4 | 0.447 | 0.351 | 0.447 |  |  |  |  |  |  |  |  |  |  |  |  |
| NCI-H1650 | 0.447 | 0.775 | 0.563 | 0.384 | 0.415 | 0.464 | 0.563 | 0.299 | 0.652 | 0.579 | 0.506 | 0.3 | 0.931 | 1.02 | 1.04 | 1.17 |  |  |  |  |
| Calu-6 |  |  |  |  |  |  |  |  | 0.922 | 0.875 | 0.788 | 0.333 | 0.777 | 0.746 | 0.916 | 0.343 | 0.906 | 0.917 | 1.02 | 0.866 |
| NCI-H1792 |  | 0.701 | 1.12 | 0.751 |  |  |  |  | 0.294 | 0.224 | 0.233 | 0.272 | 0.978 | 0.881 | 1.05 | 1.05 | 0.601 | 0.519 | 0.493 | 0.559 |
